Reference: patent US10961197B2, “Metal chelators for imaging, therapeutics, and bioanalysis” (THE BOARD OF TRUSTEES OF THE UNIVERSITY OF ILLINOIS, priority 2016, dated 2021)

Experiments:
Type in all cases: physicochemical
[1] = EDTA challenge assay of kinetic inertness (luminescence over time, 5 nM complex, 1 mM EDTA); conditions: for stability in EDTA solution: for 2 days
Description: FIG. 2 is a graph of the relative kinetic stability as measured by the luminescence signal intensity at ca. 545 nm (for Tb(III) complexes) or 620 nm (for Eu(III) complexes) for various dilute aqueous solutions (5 nM) of the indicated metal complexes in TBS buffer containing 1 mM EDTA.
FIG. 3 is a graph of the relative kinetic stability as measured by the luminescence signal intensity at ca. 545 nm (for Tb(III) complexes) or 620 nm (for Eu(III) complexes) for various dilute aqueous solutions (5 nM) of the indicated metal complexes in TBS buffer containing 1 mM EDTA.
The cyclic TTHA-based complexes Tb-12a and Eu-12b were still more than 40% in emissive after 48 h.
(§1) Complete metallation, as judged by formation of green Tb luminescence, occurred in less than 15 min. The resulting complex was then diluted to a final concentration of 5 nM in buffer solution that contained a much higher concentration (1 mM) of a competing chelator, ethylene diamine tetraacetic acid (EDTA). By observing the metal luminescence over time, the kinetic inertness of compound iii relative to that of other known chelators was assessed.

[2] = Quantum yield of emission of lanthanide complexes in water / aqueous buffer; conditions: Tb complex
Description: A cyclohexyl analog of the metal chelator was prepared with methylenecarboxylate pendant groups and a sensitizing chromophore (carbostyril 124) appended to one of the central nitrogens (compound iii). The synthesis of compound iii was remarkably efficient (8 steps, 45% overall yield). Moreover, it can be scaled up and altered to prepare different derivatives, as evidenced by the incorporation of a single chromophore into the structure. Given its position in the molecule, the amide oxygen between the cyclohexyl nitrogen and the chromophore may coordinate to a bound Tb ion. This coordination in turn would allow for efficient sensitization of metal luminescence and result in a high quantum yield of emission. […] The quantum yield of compound iii exceeded 50% in water, making it among the most efficient luminescent Tb complexes known.
All of the complexes prepared show characteristic lanthanide emission spectra. UV-Vis absorption spectra closely matched those of previously reported carbostyril-sensitized complexes. […] The efficient emission and lack of bound waters support the hypothesis that inner substitution positions the sensitizer such that it remains coordinated to the metal center.

[3] = Metallation of chelator with Tb in buffer at 1:1 ratio, judged by green Tb luminescence; conditions: 1:1 ratio in buffer
Description: as §1

Molecule | stability in EDTA solution [1] | quantum yield [2] | time to equilibrate with the EDTA solution ([1]; Tb complex) [h] | time to complete metallation [3] | time to complete dissociation from Tb(III) [1]
O=C(O)CN1CCN(CC(=O)O)CCN(CC(=O)O)CCN(CC(=O)O)CC1 [DOTA, 1,4,7,10-tetraazacyclododecane-1,4,7,10-tetraacetic acid] | remains essentially stable |  |  |  | 
Cc1cc(=O)[nH]c2c(NC(=O)CN(CCN(CC(=O)O)[C@@H]3CCCC[C@H]3N(CC(=O)O)CC(=O)O)[C@H]3CCCC[C@@H]3N(CC(=O)O)CC(=O)O)cccc12 [Compound iii] | remains essentially stable | exceeded 50% | 2 to 3 | less than 15 min | 
O=C(O)CN(CCN(CC(=O)O)CC(=O)O)CCN(CC(=O)O)CC(=O)O [DTPA, diethylamine triamine pentaacetic acid] |  |  |  |  | ca. 10 h
DOTAm | remains essentially stable |  |  |  | 
